From the supplement of paper PMC13380429

Key:
Details in all cases: 72 h
[1] = test system: U2OS; test: drug sensitivity score (DSS) for viability; higher = more toxic; extreme values may be limits of the assay
[2] = test system: Caco-2; test: as above
[3] = test system: HepG2; test: as above
[4] = test system: Calu-3; test: as above
[5] = test system: Vero E6; test: as above
[6] = test system: U2OS; test: cell viability relative to DMSO; higher = less toxic
[7] = test system: Caco-2; test: as above
[8] = test system: HepG2; test: as above
[9] = test system: Calu-3; test: as above
[10] = test system: Vero E6; test: as above
[11] = test system: U2OS; test: relative viability EC50 (midpoint between 100% and the lowest measured viability); higher = less toxic
[12] = test system: HepG2; test: as above
[13] = test system: Vero E6; test: as above
[14] = test system: Caco-2; test: as above
[15] = test system: Calu-3; test: as above

SMILES | drug sensitivity score [1] | drug sensitivity score [2] | drug sensitivity score [3] | drug sensitivity score [4] | drug sensitivity score [5] | cell viability ([6]; 1 nM) | cell viability ([6]; 10 nM) | cell viability ([6]; 100 nM) | cell viability ([6]; 1000 nM) | cell viability ([6]; 10000 nM) | cell viability ([7]; 1 nM) | cell viability ([7]; 10 nM) | cell viability ([7]; 100 nM) | cell viability ([7]; 1000 nM) | cell viability ([7]; 10000 nM) | cell viability ([8]; 1 nM) | cell viability ([8]; 10 nM) | cell viability ([8]; 100 nM) | cell viability ([8]; 1000 nM) | cell viability ([8]; 10000 nM) | cell viability ([9]; 1 nM) | cell viability ([9]; 10 nM) | cell viability ([9]; 100 nM) | cell viability ([9]; 1000 nM) | cell viability ([9]; 10000 nM) | cell viability ([10]; 1 nM) | cell viability ([10]; 10 nM) | cell viability ([10]; 100 nM) | cell viability ([10]; 1000 nM) | cell viability ([10]; 10000 nM) | relative viability EC50 [11] | relative viability EC50 [12] | relative viability EC50 [13] | relative viability EC50 [14] | relative viability EC50 [15]
Nc1nccc(-c2c(-c3ccc(F)cc3)ncn2C2CCCCC2)n1 | 0.6 | 2.3 | 4.3 | 3.7 | 0.4 | 98.2% | 102% | 103% | 95.5% | 85% | 102% | 96.2% | 97.3% | 85.2% | 74.8% | 97.8% | 99.7% | 100% | 92.4% | 43.3% | 91.1% | 100% | 105% | 87% | 62.1% | 105% | 103% | 99.2% | 108% | 79.8% | > 10 µM | 2.08 µM | > 10 µM |  | 
CC(=O)c1cnc2ccc(-c3cc(Cl)c(O)c(Cl)c3)nc2c1N[C@H]1CC[C@H](CN(C)C)CC1 [OTS167] | 30.5 | 21.5 | 30.3 |  | 29.2 | 97.6% | 86.7% | 10.7% | 5.5% | 0% | 98.5% | 98.4% | 41.1% | 34.8% | 12% | 108% | 84.7% | 11.4% | 5.1% | 3.9% |  |  |  |  |  | 96.4% | 100% | 6.3% | 11.7% | 2.6% | 0.0295 µM | 0.0253 µM | 0.0351 µM | 0.0765 µM | 
Cc1c(NC(=O)c2cc3c(s2)CCCC3)cccc1-c1cn(C)c(=O)c(Nc2ccc(C3C(=O)N(C)CCN3C)cc2)n1 (stereo in doubt) [GDC-0834] | 0 | 1.5 | 0 | 0 | 0 | 103% | 99.1% | 98.5% | 101% | 92.7% | 104% | 98.3% | 99.9% | 96.3% | 74.6% | 106% | 95.6% | 94.7% | 107% | 97.2% | 96.6% | 100% | 96.2% | 95.4% | 95.8% | 105% | 101% | 104% | 97.4% | 105% | > 10 µM | > 10 µM | > 10 µM |  | > 10 µM
CSC[C@H](N)C(=O)O [S-methylcysteine] | 0 | 0 | 0 |  | 0 | 101% | 98.7% | 104% | 98.1% | 102% | 79.7% | 105% | 86.5% | 101% | 97.3% | 89.3% | 100% | 95.6% | 92.3% | 99.3% |  |  |  |  |  | 92.8% | 93.6% | 97.1% | 96.3% | 105% | > 10 µM | > 10 µM | > 10 µM | > 10 µM | 
CC/C=C(\C(=O)N[C@@H]1C(=O)N2C(C(=O)OCOC(=O)C(C)(C)C)=C(COC(N)=O)CS[C@H]12)c1csc(N)n1 [cefcapene-pivoxil] | 0 | 0 | 3.3 |  | 0 | 97.2% | 106% | 98.5% | 103% | 103% | 104% | 101% | 117% | 113% | 94.4% | 107% | 93.8% | 89.7% | 78.8% | 86.4% |  |  |  |  |  | 109% | 94.7% | 110% | 111% | 102% | > 10 µM | > 10 µM | > 10 µM | > 10 µM | 
Cc1cc(CC(=O)O)n(C)c1C(=O)c1ccc(Cl)cc1 [zomepirac] | 0 | 7.3 | 0.1 | 0 | 0 | 96.6% | 101% | 92.9% | 97.7% | 99.6% | 94.4% | 97.7% | 75.3% | 74.4% | 77.8% | 88% | 84.9% | 84.7% | 101% | 91.6% | 94.7% | 99.6% | 97.4% | 94.3% | 103% | 105% | 94.6% | 104% | 94.4% | 93.7% | > 10 µM | > 10 µM | > 10 µM |  | > 10 µM
CO/N=C(\C(=O)N[C@@H]1C(=O)N2C(C(=O)O)=C(CSc3nc(=O)c(O)nn3C)CS[C@H]12)c1csc(N)n1 [ceftriaxone] | 0 |  | 0 | 0 | 0 | 100% | 94.2% | 94.5% | 95.7% | 97.2% |  |  |  |  |  | 93% | 96.7% | 96.5% | 97.3% | 97.9% | 92.7% | 94.5% | 95.2% | 92% | 105% | 96.6% | 102% | 96% | 106% | 95.5% | > 10 µM | > 10 µM | > 10 µM |  | > 10 µM
